Measurements as given in PMC7649747, “The startle disease mutation α1S270T predicts shortening of glycinergic synaptic currents” (The Journal of Physiology, 2020).
Where a chain is given by its changes, count along the chain named.

Legend:
homomeric α1 GlyR [1] = molecular target: T1, homomeric α1 GlyR (Homo sapiens, UniProt P23415); test: whole-cell patch clamp, U-tube application, Hill fit of peak currents; type: cell-based
T1 construct: gene GLRA1; full-length subunit, pcDNA3.1, transient expression in HEK293A; homopentamer; eGFP from separate plasmid
T1 sequence (P23415 29-457): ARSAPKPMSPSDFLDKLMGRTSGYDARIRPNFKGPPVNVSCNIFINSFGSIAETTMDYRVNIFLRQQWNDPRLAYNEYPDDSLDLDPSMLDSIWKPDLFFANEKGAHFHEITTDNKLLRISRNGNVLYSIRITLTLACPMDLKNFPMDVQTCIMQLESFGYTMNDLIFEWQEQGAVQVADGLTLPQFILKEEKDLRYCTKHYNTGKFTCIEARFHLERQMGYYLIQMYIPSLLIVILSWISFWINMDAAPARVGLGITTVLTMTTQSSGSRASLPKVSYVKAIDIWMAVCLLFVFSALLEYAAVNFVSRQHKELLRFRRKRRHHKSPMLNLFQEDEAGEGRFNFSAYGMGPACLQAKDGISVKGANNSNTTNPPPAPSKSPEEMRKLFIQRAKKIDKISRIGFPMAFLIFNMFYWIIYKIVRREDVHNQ
Excerpt: (§1) whole-cell patch clamp, U-tube application, Hill fit of peak currents on homomeric α1 GlyR

homomeric α1 GlyR [2] = molecular target: T2, homomeric α1 GlyR (Homo sapiens, UniProt P23415, S298T); test: as above; type: cell-based
T2 construct: gene GLRA1; full-length subunit, pcDNA3.1, transient expression in HEK293A; homopentamer; eGFP from separate plasmid
T2 sequence (P23415 29-457 S298T): T1 sequence (P23415 29-457) with S270T
Excerpt: as §1

EC50 (homomeric α1 GlyR [1]): 14 ± 6 mM
EC50 (homomeric α1 GlyR [2]): 23 ± 3 mM
Structure (SMILES): CNCC(=O)O [sarcosine]
